For orientation: inhibition means how much of the control response was suppressed.

The structures appear in SMILES notation.

These results are taken from article PMC9168183 (Redox Biology, 2022).

This assay deals with T1, thioredoxin reductase (TrxR) (Rattus norvegicus, UniProt O89049).
T1 sequence (O89049 1-499): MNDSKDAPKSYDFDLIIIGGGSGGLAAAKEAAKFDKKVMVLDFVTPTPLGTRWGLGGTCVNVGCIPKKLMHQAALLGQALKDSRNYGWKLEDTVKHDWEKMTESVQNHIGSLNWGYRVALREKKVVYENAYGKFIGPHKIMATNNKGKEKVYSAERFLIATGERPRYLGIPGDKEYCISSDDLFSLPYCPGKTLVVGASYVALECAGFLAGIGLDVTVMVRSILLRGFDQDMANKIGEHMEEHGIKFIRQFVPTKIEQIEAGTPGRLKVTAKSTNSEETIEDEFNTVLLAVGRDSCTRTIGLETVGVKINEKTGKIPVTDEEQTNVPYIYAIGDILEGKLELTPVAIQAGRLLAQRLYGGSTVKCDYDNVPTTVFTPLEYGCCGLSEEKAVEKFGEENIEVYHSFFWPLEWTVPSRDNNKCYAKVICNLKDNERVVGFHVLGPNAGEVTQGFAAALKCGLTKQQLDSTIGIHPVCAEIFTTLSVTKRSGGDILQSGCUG
In words: DTNB assay with isolated TrxR, % inhibition at […]. In kind it is biochemical. As to conditions: read-out: Isolated TrxR (Inhibition %).

Take `O=C(/C=C/c1ccc(O)cc1)c1ccc(O)cc1O` [compound 4, Isoliquiritigenin]: the inhibition at 50 µM turned out to be 76.9%.
Consider `C=C1C(=O)O[C@@H]2C[C@@]3(C)CCCC(=C)[C@@H]3C[C@H]12` [compound 5, Isoalantolactone], for which the inhibition at 50 µM is 79.7%.
